Results as given in patent US5574059A, “Treating disorders mediated by vascular smooth muscle cell proliferation” (priority 1995, dated 1996).
Where two headings read alike, the source gives them in different places.

Tests used:
[1] = test system: rat aortic smooth muscle cells; assay: antagonism of the antiproliferative effect in serum-stimulated smooth muscle cells; format: cell-based; details: Rattus norvegicus; in presence of tolazoline 100 μM; read-out: IC50 of idazoxan in presence of tolazoline
Description: Inhibition of serum-stimulated proliferation of rat aortic smooth muscle cells is determined as follows: The antiproliferative effect of potential drug is determined by measuring the incorporation of ^3 H-thymidine into cellular DNA. Exposure of quiescent vascular smooth muscle cell to serum, which contains many growth factors, results in a large increase in cellular proliferation as measured by ^3 H-thymidine incorported into DNA. The inhibitory effect of potential drug on serum-stimulated proliferation is tested by adding a drug before the addition of serum and determining if the serum-stimulated proliferation is reduced. […] In that event, antagonizing of the antiproliferative effect of idazoxan is determined by adding antagonist before the addition of idazoxan to serum-stimulated vascular smooth muscle cells.
After 48 hours, the cells were starved in 0.5% FCS for another 48 hours to decrease proliferation and induce quiescence. The medium was replaced by serum-free medium 24 hours prior to addition of drug (drugs are described below) and 10% fetal calf serum or only 10% fetal calf serum in the case of the control. The cells were then incubated for 24 hours and ^3 H-thymidine (1 μCi/well) was added at hour 20. At the end of the 24 hour period, the medium was aspirated and the cells were washed three times with phosphate-buffered saline and twice with ice-cold trichloroacetic acid. Fixed cells were then solubilized in 0.2M NaOH and sonicated. A 100 μl aliquot was used for scintillation counting.
To test this, the effect of tolazoline (100 μM) on the concentration/response curve was determined.

[2] = test system: I2 imidazoline receptors; assay: inhibition of 3H-idazoxan (5 nM) binding to rat aortic smooth muscle cell membranes; details: 3H-idazoxan 5 nM
Description: Binding to I2 imidazoline receptors is determined by the following assay. Membranes are prepared from cultured cells for ligand binding as described in Regunathan, S., et al, Biochem. Pharmacol. 45, 1667-1675 (1993) and Regunathan, S., et al, J. Neurosci. Res. 34, 681-688 (1993) and the disclosure in these on this is incorporated herein by reference. In particular, harvested rat aortic smooth muscle cells are homogenized in Hepes-sucrose buffer (pH 7.4) with a Teflon-glass homogenizer and centrifuged at 1000 × g for 10 minutes. The pellets are suspended in ice-cold Tris-HCl buffer (pH 7.7) with 5mM ethylene diamine tetracetic acid and homogenized using a Polytron (Brinkman Instruments) for 10 seconds. The homogenate is centrifuged at 40,000 × g for 30 minutes to produce a membrane pellet. The membrane pellet is washed three times by resuspending in buffer and re-centrifuging. The washed pellet is suspended in fresh Tris-HCl buffer (pH 7.4) to provide approximately 100 μg protein per assay tube. Binding assays are performed in Tris-HCl buffer (pH 7.7) using 5 nM of […]. Non-specific binding is defined by 100 μM of unlabelled idazoxan which will inhibit the specific binding of ^3 H-idazoxan. Thus the binding remaining in the presence 100 μM of idazoxan is due to non-specific binding and this will be substracted from total binding to calculate the specific binding. Following incubation at 25° C. for 30 minutes, reaction is terminated by rapid vacuum filtration over Whatman GF/B filters and washed with 10 ml of ice-cold buffer. Filters are suspended in scintillation fluid and radioactivity counted in a liquid scintillation counter. Membrane protein is assayed by Coomassie Blue method (Pierce) using bovine serum albumin as standard.
Determination of inhibition constant (Ki) for each drug is determined as follows: The binding of ^3 H-idazoxan to membranes of vascular smooth muscle cells is determined in the presence of 0.1 nM to 100 μM concentrations of potential drug. The percent inhibition of specific binding of ^3 H-idazoxan by each concentration is calculated and plotted against concentration. The data is analyzed by non-linear curve fitting program, LIGAND and the IC50 value for each potential drug is calculated. The affinity for each drug (Ki) for I2 imidazoline receptors is calculated using the formula Ki =IC50 /1+L/Kd where L is the concentration of ^3 H-idazoxan used for binding and Kd is the dissociation constant for ^3 H-idazoxan for I2 imidazoline receptors. The dissociation constant (Kd) is determined by Scatchard analysis of the saturation binding of ^3 H-idazoxan using the formula [formula] where B and F are the amount of bound and free ligand, respectively, and Bmax is the number of binding sites.
Primary cultures of rat-aortic smooth muscle cells were prepared by a modification (described in Erlinge, Do, et al, Am. J. Physiol. 265, H1089-1097, 1993) of the method of Meyer-Lehnert and Schrier (Meyer-Lehnert, H., et al, Hypertension 13,350-361, 1989), the disclosure of these cited articles being incorporated herein by reference. Briefly, rats were killed by anesthetic overdose and the aorta were removed and incubated with collagenase (2 mg/ml) in Dulbecco's modified Eagle's minimum essential medium (DMEM). The vessel was stripped of adventitia, cut longitudinally and the intima scraped away. After further collagenase treatment, the remaining tissue was passed 20 times through 18 and 16 gauge needles. The resulting cell suspension was centrifuged at 500 × g for 5 minutes and resuspended in DMEM containing penicillin (100 units/ml), streptomycin (100 μg/ml), 2 mM L-glutamine and 10% fetal calf serum. The suspended cells were plated in T-75 flasks, cultured until confluent, and subcultured in 100 mm plates. The confluent cells were harvested and membranes were prepared. Cell viability was determined by trypan blue exclusion.

`c1ccc2c(c1)OCC(C1=NCCN1)O2` (stereo not drawn) [Idazoxan, 2-[2-(1,4-benzodioxanyl)]-2-imidazoline] gave an IC50 [1] of 55000 nM, a Ki ([2]; "about", read-out: Ki, inhibition of 3H-idazoxan binding) of roughly 10 nM and a Ki ([2]; Table 2, rat aortic smooth muscle cell membranes, read-out: Ki) of 8.5 ± 0.35 nM.
